Data reported in patent US5089623A, “Certain imidate insecticides” (Imperial Chemical Industries Plc, priority 1990, dated 1992).

Key:
Format in all cases: in vivo
[1] = system: Housefly [Musca domestica]; test: Housefly insecticidal test (HF); conditions: per 25 female houseflies, 48 hours
[2] = system: Tobacco Budworm [Heliothis virescens (Fabricius)] eggs; test: Tobacco budworm egg test (TBW-E); conditions: percent in solution
[3] = system: Maize weevil [Sitophilus Zeamais (Motschulsky)]; test: Maize weevil test (MW); conditions: adult weevils, treated corn seeds, 48 hours, percent in solution
Description: The compounds in Tables 1 and 2 above were tested for insecticidal activity using the following testing procedures. LC50 values, based on the results of these tests and calculated according to dosage-mortality curves, are expressed in Table 3.
Maize weevil [Sitophilus Zeamais (Motschulsky)]
Test compounds were diluted in a 50:50 acetone:water solution. Four corn seeds [Zea mays (L.)] which had been immersed in test solutions for 2-3 seconds and allowed to dry were placed in containers together with 10 adult weevils. The containers were covered and kept at a temperature of about 25° C. Mortality was recorded after 48 hours. Test concentrations ranged from 0.01% down to that at which 50% mortalilty occurred. The LC50 values are expressed below in Table 3 under the heading "MW" in terms of percent of the test compound in solution.

[4] = system: Cabbage Looper [Trichoplusia ni (Hubner)]; test: Cabbage looper test (CL); conditions: second-instar larvae, 3-5 days, percent in solution

| SMILES | LC50 HF [1] | LC50 TBW E [2] | LC50 MW [3] | LC50 CL [4] |
| --- | --- | --- | --- | --- |
| CC(C)C(=Nc1cccc([N+](=O)[O-])c1)OCc1cccc(Oc2ccccc2)c1 [Compound 302] | 15 µg | > 0.1% | > 0.01% | 0.003% |
| CC(C)C(=Nc1ccc(Cl)c(F)c1)OCc1ccc(F)c(Oc2ccc(F)cc2)c1 [Compound 441] | < 100 µg | 0.016% | 0.006% | 0.000025% |
| CC(C)C(=Nc1ccc(F)c(F)c1)OCc1cccc(Oc2ccc(Cl)cc2)n1 [Compound 559] | < 100 µg | 0.017% | > 0.01% | 0.00027% |
| Fc1ccc(COC(=Nc2ccc(C(F)(F)F)cc2)C2CC2)cc1Oc1ccc(Cl)cc1 [Compound 444] | > 100 µg | 0.023% | > 0.01% | 0.00015% |
| CC(C)C(=Nc1ccc(OCC(F)(F)F)c(Cl)c1)OCc1cccc(Oc2ccc(F)cc2)c1 [Compound 420] | > 100 µg | 0.05% | > 0.01% | 0.00075% |
| CC(C)C(=Nc1ccc(Br)c(Br)c1)OCc1ccc(F)c(Oc2ccccc2)c1 [Compound 384] | < 100 µg | 0.025% | > 0.01% | > 0.1% |
| CC(C)C(=Nc1cccc(OC(F)(F)F)c1)OCc1ccc(F)c(Oc2ccc(Cl)cc2)c1 [Compound 436] | < 100 µg | < 0.1% | > 0.01% | 0.00075% |
| COc1ccc(N=C(OCc2ccc(F)c(Oc3ccc(Cl)cc3)c2)C(C)C)cc1Cl [Compound 410] | < 100 µg | > 0.1% | > 0.01% | > 0.1% |
| Fc1ccc(Oc2cccc(COC(=Nc3cccc(C(F)(F)F)c3)C3CC3)c2)cc1 [Compound 294] | > 100 µg | > 0.1% | > 0.01% | 0.017% |
| CC(C)C(=Nc1cccc(C(F)(F)F)c1)OCc1cc(Oc2ccc(Cl)cc2)ccn1 [Compound 509] | 79 µg | > 0.1% | > 0.01% | 0.0075% |
| CC(C)C(=Nc1ccc(OCC(F)(F)F)c(Cl)c1)OCc1cccc(Oc2ccccc2)c1 [Compound 425] | > 100 µg | > 0.1% | > 0.01% | 0.00075% |
| C=C(C)C(=Nc1ccc(C(F)(F)F)cc1)OCc1cccc(Oc2ccc(Cl)cc2)n1 [Compound 560] | < 100 µg | < 0.1% | > 0.01% | 0.0015% |
| Cc1ccc(N=C(OCc2cccc(Oc3ccc(F)cc3)c2)C(C)C)cc1Cl [Compound 402] | < 100 µg | > 0.1% | > 0.01% | > 0.1% |
| CCc1ccccc1N=C(OCc1cccc(Oc2ccc(F)cc2)c1)C(C)C [Compound 411] | < 100 µg | > 0.1% | > 0.01% | > 0.1% |
| CCOc1ccc(N=C(OCc2ccc(F)c(Oc3ccc(Cl)cc3)c2)C(C)C)cc1 [Compound 372] | > 100 µg | > 0.1% | > 0.01% | > 0.1% |
| COc1ccc(N=C(OCc2ccc(F)c(Oc3ccc(F)cc3)c2)C(C)C)cc1Cl [Compound 408] | < 100 µg | 0.02% | > 0.01% | 0.0015% |
| CC(C)C(=Nc1cccc(Br)c1)OCc1cccc(Oc2ccc(Cl)cc2)n1 [Compound 557] | < 100 µg | > 0.1% | > 0.01% | 0.0004% |

| SMILES | LC50 HF [1] | LC50 TBW E [2] | LC50 MW [3] | LC50 CL [4] |
| --- | --- | --- | --- | --- |
| C=C(C)C(=Nc1ccc(C(F)(F)F)cc1)OCc1cccc(Oc2ccccc2)c1 [Compound 430] | < 100 µg | 0.032% | 0.004% | 0.001% |
| C=C(C)C(=Nc1ccc(C(F)(F)F)cc1)OCc1cccc(Oc2ccc(F)cc2)c1 [Compound 442] | < 100 µg | 0.035% | > 0.01% | 0.0007% |
| CCOc1cccc(N=C(OCc2ccc(F)c(Oc3ccc(F)cc3)c2)C(C)C)c1 [Compound 426] | > 100 µg | > 0.1% | > 0.01% | 0.002% |
| CC(C)C(=Nc1cccc(Cl)c1)OCc1ccc(F)c(Oc2ccc(F)cc2)c1 [Compound 341] | 4 µg | 0.023% | > 0.01% | 0.0005% |
| CC(C)C(=Nc1cccc(Br)c1)OCc1ccc(F)c(Oc2ccc(Cl)cc2)c1 [Compound 386] | < 100 µg | > 0.1% | > 0.01% | 0.0012% |
| CC(C)C(=Nc1ccc(F)c(I)c1)OCc1cccc(Oc2ccc(Cl)cc2)c1 [Compound 413] | < 100 µg | 0.04% | > 0.01% | 0.0007% |
| COCc1c(F)c(F)c(COC(=Nc2ccc(F)c(Cl)c2)C(C)C)c(F)c1F [Compound 505] | 14 µg | 0.09% | > 0.01% | 0.0024% |
| CC(C)C(=Nc1ccc([N+](=O)[O-])c(C(F)(F)F)c1)OCc1cccc(Oc2ccccc2)c1 [Compound 307] | > 100 µg | 0.08% | > 0.01% | 0.002% |
| Cc1ccc(N=C(OCc2cccc(Oc3ccc(Cl)cc3)c2)C(C)C)cc1Cl [Compound 403] | < 100 µg | > 0.1% | > 0.01% | > 0.1% |
| COCc1c(F)c(F)c(COC(=Nc2cccc(C(F)(F)F)c2)C(C)C)c(F)c1F [Compound 503] | 21 µg | 0.08% | > 0.01% | 0.001% |
| CC(C)C(=Nc1cccc(I)c1)OCc1cccc(Oc2ccc(Cl)cc2)c1 [Compound 389] | < 100 µg | > 0.1% | > 0.01% | 0.00069% |
| CC(C)C(=Nc1cccc(C(F)(F)F)c1)OCc1coc(Cc2ccccc2)c1 [Compound 482] | 36 µg | > 0.1% | > 0.01% | 0.01% |
| CC(C)C(=Nc1ccc(C#N)cc1)OCc1cccc(Oc2ccc(Cl)cc2)c1 [Compound 393] | < 100 µg | > 0.1% | > 0.01% | 0.00037% |
| CC(C)C(=Nc1ccc(OC(F)(F)C(F)Cl)cc1)OCc1ccc(F)c(Oc2ccccc2)c1 (stereo not drawn) [Compound 419] | > 100 µg | > 0.1% | > 0.01% | > 0.1% |
| CC(C)C(=Nc1ccc2c(c1)OC(F)(F)O2)OCc1cccc(Oc2ccccc2)n1 [Compound 556] | < 100 µg | 0.04% | > 0.01% | 0.0007% |
| CC(C)C(=Nc1ccc(OCC(F)(F)F)c(F)c1)OCc1cccc(Oc2ccc(Cl)cc2)c1 [Compound 429] | > 100 µg | < 0.1% | > 0.01% | 0.0017% |
